Measured values as given in the supplement of paper PMC11208160.
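Further: IS621 bridge recombinase in Escherichia coli cells against a fixed T5 target plasmid.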

Assay: recombinant UMI read abundance after kanamycin selection (control-corrected) (log10(CPM+1)); higher = more efficient recombination; extreme values may be limits of the assay; sequences stand for … in AGTGCAGAGAAAATCGGCCAGTTTTCTCTGCCTGCAGTCCGCATGCCGTGGGACCCCTTGGGTTCTAACCTGTTGCCTAGATTTATGCAGCGGACTGCCTTTCTCCCAAAGTGATAAACCGG…AGGTTGGTTTCACT; site = the 11-nt donor
Method: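 Pooled E. coli donor-specificity screen for the IS621 bridge recombinase. Each library member carries a reprogrammed 11-nt donor and a full-length LE bridge RNA expressed in cis from the natural promoter, with a paired donor-binding loop (8-nt LDG + 4-nt RDG) and a target-binding loop fixed to T5. It is co-electroporated with a T5 target plasmid; recombinase is induced with 0.07 mM IPTG and recombinants are selected on kanamycin. UMIs are counted as CPM, averaged over two biological replicates and corrected by the unselected control. Molecule = full bridge RNA written as DNA, built from the T5 scaffold: LDG = donor specificity nt 1-8, RDG = reverse complement of nt 8-11.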
For “ACTGGAGCATGGACCGGTTTTCCCGGTAATCCGTATTTGCT (site ACTGGAGCTAG)”, the “recombinant UMI read abundance (log10)” value was 1.86.
For “ACTGGATCATGGACCGGTTTTCCCGGTAATCCGTATTTGAG (site ACTGGATCTCT)”, the “recombinant UMI read abundance (log10)” value was 2.41.
For “ACTGGATCATGGACCGGTTTTCCCGGTAATCCGTATTTGCA (site ACAGTATCTTG)”, the “recombinant UMI read abundance (log10)” value was 0.973.
With “ACTGGATCATGGACCGGTTTTCCCGGTAATCCGTATTTGCA (site ACTGGATCTTG)” the “recombinant UMI read abundance (log10)” value was 1.64.
In the case of “ACTGGGACATGGACCGGTTTTCCCGGTAATCCGTATTTGAG (site ACTGGGACTCT)”, the “recombinant UMI read abundance (log10)” value is reported as 1.39.
For “ACTGGTACATGGACCGGTTTTCCCGGTAATCCGTATTTGAA (site ACTGGTACTTT)”, the “recombinant UMI read abundance (log10)” value was 1.1.
With “ACTGTATCATGGACCGGTTTTCCCGGTAATCCGTATTTGAA (site ACAGTATCTTG)” the “recombinant UMI read abundance (log10)” value was 0.
In the case of “ACTGTATCATGGACCGGTTTTCCCGGTAATCCGTATTTGAA (site ACTGTATCTTT)”, the “recombinant UMI read abundance (log10)” value is reported as 1.99.
In the case of “ACTGTATCATGGACCGGTTTTCCCGGTAATCCGTATTTGCA (site ACAGTATCTTG)”, the “recombinant UMI read abundance (log10)” value is reported as 1.82.
In the case of “ACTGTATCATGGACCGGTTTTCCCGGTAATCCGTATTTGCA (site ACCGTATCTTG)”, the “recombinant UMI read abundance (log10)” value is reported as 1.91.
In the case of “ACTGTATCATGGACCGGTTTTCCCGGTAATCCGTATTTGCA (site ACGGTATCTTG)”, the “recombinant UMI read abundance (log10)” value is reported as 1.96.
With “ACTGTATCATGGACCGGTTTTCCCGGTAATCCGTATTTGCA (site ACTGTATCTTG)” the “recombinant UMI read abundance (log10)” value was 2.57.
For “ACTTAGACATGGACCGGTTTTCCCGGTAATCCGTATTTGGT (site ACTTAGACTAC)”, the “recombinant UMI read abundance (log10)” value was 1.15.
With “ACTTGATCATGGACCGGTTTTCCCGGTAATCCGTATTTGCG (site ACTTGATCTCG)” the “recombinant UMI read abundance (log10)” value was 1.57.
In the case of “ACTTTAACATGGACCGGTTTTCCCGGTAATCCGTATTTGGT (site ACTTTAACTAC)”, the “recombinant UMI read abundance (log10)” value is reported as 0.85.
For “AGAAAAACATGGACCGGTTTTCCCGGTAATCCGTATTTGCA (site AGAAAAACTTG)”, the “recombinant UMI read abundance (log10)” value was 2.23.
For “AGAAAAACATGGACCGGTTTTCCCGGTAATCCGTATTTGCA (site AGGAAGACTTG)”, the “recombinant UMI read abundance (log10)” value was 0.
With “AGAAAGGCATGGACCGGTTTTCCCGGTAATCCGTATTTGCC (site AGAAAGGCTAG)” the “recombinant UMI read abundance (log10)” value was 0.
For “AGAAAGGCATGGACCGGTTTTCCCGGTAATCCGTATTTGCC (site AGAAAGGCTCG)”, the “recombinant UMI read abundance (log10)” value was 0.784.
With “AGAAAGGCATGGACCGGTTTTCCCGGTAATCCGTATTTGCC (site AGAAAGGCTGG)” the “recombinant UMI read abundance (log10)” value was 1.78.
For “AGAAAGGCATGGACCGGTTTTCCCGGTAATCCGTATTTGCC (site AGAAAGGCTTG)”, the “recombinant UMI read abundance (log10)” value was 1.79.
For “AGAAAGGCATGGACCGGTTTTCCCGGTAATCCGTATTTGGT (site AGAAAGGCTAA)”, the “recombinant UMI read abundance (log10)” value was 1.65.
For “AGAAAGGCATGGACCGGTTTTCCCGGTAATCCGTATTTGGT (site AGAAAGGCTAC)”, the “recombinant UMI read abundance (log10)” value was 0.881.
With “AGAAAGGCATGGACCGGTTTTCCCGGTAATCCGTATTTGGT (site AGAAAGGCTAG)” the “recombinant UMI read abundance (log10)” value was 0.34.
In the case of “AGAAAGGCATGGACCGGTTTTCCCGGTAATCCGTATTTGGT (site AGAAAGGCTAT)”, the “recombinant UMI read abundance (log10)” value is reported as 0.986.
With “AGAAAGGCATGGACCGGTTTTCCCGGTAATCCGTATTTGTT (site AGAAAGGCTAA)” the “recombinant UMI read abundance (log10)” value was 1.99.
For “AGAAAGGCATGGACCGGTTTTCCCGGTAATCCGTATTTGTT (site AGAAAGGCTAC)”, the “recombinant UMI read abundance (log10)” value was 0.
In the case of “AGAAAGGCATGGACCGGTTTTCCCGGTAATCCGTATTTGTT (site AGAAAGGCTAG)”, the “recombinant UMI read abundance (log10)” value is reported as 1.47.
With “AGAAAGGCATGGACCGGTTTTCCCGGTAATCCGTATTTGTT (site AGAAAGGCTAT)” the “recombinant UMI read abundance (log10)” value was 0.97.
For “AGAAAGTCATGGACCGGTTTTCCCGGTAATCCGTATTTGCA (site AGAAAGTCTTG)”, the “recombinant UMI read abundance (log10)” value was 2.65.
For “AGAAAGTCATGGACCGGTTTTCCCGGTAATCCGTATTTGCA (site AGGAAGACTTG)”, the “recombinant UMI read abundance (log10)” value was 0.
For “AGAAATCCATGGACCGGTTTTCCCGGTAATCCGTATTTGTT (site AGAAATCCTAA)”, the “recombinant UMI read abundance (log10)” value was 0.589.
In the case of “AGAAATCCATGGACCGGTTTTCCCGGTAATCCGTATTTGTT (site CGGAATCCTAA)”, the “recombinant UMI read abundance (log10)” value is reported as 0.00278.
With “AGAAATGCATGGACCGGTTTTCCCGGTAATCCGTATTTGAG (site AGAAATGCTCT)” the “recombinant UMI read abundance (log10)” value was 2.88.
In the case of “AGAAATGCATGGACCGGTTTTCCCGGTAATCCGTATTTGCC (site AGAAATGCTGG)”, the “recombinant UMI read abundance (log10)” value is reported as 1.67.
In the case of “AGAATGCCATGGACCGGTTTTCCCGGTAATCCGTATTTGAC (site AGAATGCCTGT)”, the “recombinant UMI read abundance (log10)” value is reported as 0.
In the case of “AGACACCCATGGACCGGTTTTCCCGGTAATCCGTATTTGCA (site AGACACCCTTG)”, the “recombinant UMI read abundance (log10)” value is reported as 1.15.
For “AGACGAGCATGGACCGGTTTTCCCGGTAATCCGTATTTGCG (site AGACGAGCTCG)”, the “recombinant UMI read abundance (log10)” value was 2.67.
With “AGACTTGCATGGACCGGTTTTCCCGGTAATCCGTATTTGTA (site AGACTTGCTTA)” the “recombinant UMI read abundance (log10)” value was 0.887.
In the case of “AGAGCGACATGGACCGGTTTTCCCGGTAATCCGTATTTGTG (site AGAGCGACTCA)”, the “recombinant UMI read abundance (log10)” value is reported as 1.49.
With “AGAGGGTCATGGACCGGTTTTCCCGGTAATCCGTATTTGGT (site AGAGGGTCTAC)” the “recombinant UMI read abundance (log10)” value was 2.54.
For “AGAGGTCCATGGACCGGTTTTCCCGGTAATCCGTATTTGTG (site AGAGGTCCTCA)”, the “recombinant UMI read abundance (log10)” value was 0.00302.
With “AGAGTACCATGGACCGGTTTTCCCGGTAATCCGTATTTGCA (site ACAGTATCTTG)” the “recombinant UMI read abundance (log10)” value was 1.61.
For “AGAGTACCATGGACCGGTTTTCCCGGTAATCCGTATTTGCA (site AGAGTACCTTG)”, the “recombinant UMI read abundance (log10)” value was 0.
With “AGAGTTACATGGACCGGTTTTCCCGGTAATCCGTATTTGGC (site AGAGTTACTGC)” the “recombinant UMI read abundance (log10)” value was 2.43.
In the case of “AGATATACATGGACCGGTTTTCCCGGTAATCCGTATTTGTT (site AGATATACTAA)”, the “recombinant UMI read abundance (log10)” value is reported as 1.74.
With “AGATCATCATGGACCGGTTTTCCCGGTAATCCGTATTTGCA (site AGATCATCTTG)” the “recombinant UMI read abundance (log10)” value was 2.25.
In the case of “AGATCATCATGGACCGGTTTTCCCGGTAATCCGTATTTGCA (site CGATCATCTAG)”, the “recombinant UMI read abundance (log10)” value is reported as 0.
In the case of “AGATCTACATGGACCGGTTTTCCCGGTAATCCGTATTTGTG (site AAATCTACTCA)”, the “recombinant UMI read abundance (log10)” value is reported as 0.223.
For “AGATCTACATGGACCGGTTTTCCCGGTAATCCGTATTTGTG (site ACATCTACTCA)”, the “recombinant UMI read abundance (log10)” value was 0.0151.
In the case of “AGATCTACATGGACCGGTTTTCCCGGTAATCCGTATTTGTG (site AGATCTACTCA)”, the “recombinant UMI read abundance (log10)” value is reported as 0.215.
In the case of “AGATCTACATGGACCGGTTTTCCCGGTAATCCGTATTTGTG (site ATATCTACTCA)”, the “recombinant UMI read abundance (log10)” value is reported as 0.00795.
In the case of “AGATCTTCATGGACCGGTTTTCCCGGTAATCCGTATTTGCT (site AGATCTTCTAG)”, the “recombinant UMI read abundance (log10)” value is reported as 1.45.
With “AGATCTTCATGGACCGGTTTTCCCGGTAATCCGTATTTGCT (site CGATCATCTAG)” the “recombinant UMI read abundance (log10)” value was 0.
With “AGATGTACATGGACCGGTTTTCCCGGTAATCCGTATTTGAC (site AGATGTACTGT)” the “recombinant UMI read abundance (log10)” value was 1.96.
With “AGATTCCCATGGACCGGTTTTCCCGGTAATCCGTATTTGTG (site AGATTCCCTCA)” the “recombinant UMI read abundance (log10)” value was 0.348.
With “AGATTCCCATGGACCGGTTTTCCCGGTAATCCGTATTTGTG (site AGCTTCCCTCA)” the “recombinant UMI read abundance (log10)” value was 0.0129.
